pEC50, pIC50: −log10 of the molar value.
Experiments:
[1] = Inhibition of MERS-CoV 3CLpro using SG-QXL520 as substrate preincubated with compound for 30 mins followed by susbtrate addition and measured after 30 mins by FRET assay; parameters: species or system Middle East respiratory syndrome-related coronavirus
[2] = target: Replicase polyprotein 1ab (Severe acute respiratory syndrome coronavirus 2, UniProt P0DTD1); assay: Inhibition of full length N-terminal his6-tagged SARS-CoV-2 3CL protease using FAM-SAVLQ as substrate preincubated with compound for 30 mins followed by substrate addition and measured after 30 mins by FRET assay
SARS-CoV-2 = assay: Antiviral activity against SARS CoV-2 Wuhan-Hu-1 infected in HEK293T cells incubated for 24 hrs; format: functional, organism-based; details: Severe acute respiratory syndrome coronavirus 2, Wuhan-Hu-1, HEK-293T
[3] = Cytotoxicity against cat CRFK cells incubated for 72 hrs by CytoTox 96 analysis; format: toxicity, cell-based, Felis catus

| SMILES | pIC50 [1] | pIC50 [2] | pEC50 (SARS-CoV-2) | CC50 at 72 h [3] [nM] |
| --- | --- | --- | --- | --- |
| CC(C)C[C@H](NC(=O)OCC1CC(=O)N(CC2CC3C=CC2C3)C1)C(=O)N[C@@H](C[C@@H]1CCNC1=O)C(O)S(=O)(=O)O (some centres undefined) | 7.10 | 6.72 | 6.46 | > 50000 |
| CC(C)C[C@H](NC(=O)OCC1CCN(CC2CCCCC2)C1=O)C(=O)N[C@@H](C[C@@H]1CCNC1=O)C(O)S(=O)(=O)O (some centres undefined) | 6.77 | 6.66 | 7.70 | > 50000 |
| CC(C)C[C@H](NC(=O)OC[C@@H]1CCC(=O)N1Cc1ccc2c(c1)OC(F)(F)O2)C(=O)N[C@H](C=O)C[C@@H]1CCNC1=O | 7.30 | 6.57 | 6.29 | > 50000 |
| CC(C)C[C@H](NC(=O)OCC1CC(=O)N(CC2CC3C=CC2C3)C1)C(=O)N[C@H](C=O)C[C@@H]1CCNC1=O (some centres undefined) | 7.10 | 6.72 | 6.55 | > 50000 |
| CC(C)C[C@H](NC(=O)OC[C@@H]1CCC(=O)N1Cc1cccc(Cl)c1)C(=O)N[C@H](C=O)C[C@@H]1CCNC1=O | 7.77 | 6.96 | 6.96 | > 50000 |
| CC(C)C[C@H](NC(=O)OC[C@@H]1CCC(=O)N1Cc1cccc(Cl)c1)C(=O)N[C@@H](C[C@@H]1CCNC1=O)C(O)S(=O)(=O)O (some centres undefined) | 7.74 | 7.00 | 6.92 | > 50000 |
| CC(C)C[C@H](NC(=O)OCC1CCN(CC2CCCCC2)C1=O)C(=O)N[C@H](C=O)C[C@@H]1CCNC1=O (some centres undefined) | 6.51 | 6.64 | 7.70 | > 50000 |
| CC(C)C[C@H](NC(=O)OCC1CC(=O)N(CC2CC3CCC2C3)C1)C(=O)N[C@H](C=O)C[C@@H]1CCNC1=O (some centres undefined) | 7.22 | 6.80 | 6.92 | > 50000 |
| CC(C)C[C@H](NC(=O)OC[C@@H]1CCC(=O)N1Cc1cccc(C(F)(F)F)c1)C(=O)N[C@H](C=O)C[C@@H]1CCNC1=O | 7.30 | 6.13 | 6.25 | > 50000 |
| CC(C)C[C@H](NC(=O)OC[C@@H]1CCC(=O)N1Cc1cccc(F)c1)C(=O)N[C@@H](C[C@@H]1CCNC1=O)C(O)S(=O)(=O)O (some centres undefined) | 6.62 | 6.80 | 7.40 | > 50000 |
| CC(C)C[C@H](NC(=O)OC[C@@H]1CCC(=O)N1CC1CCCCC1)C(=O)N[C@@H](C[C@@H]1CCNC1=O)C(O)S(=O)(=O)O (some centres undefined) | 7.22 | 6.55 | 6.10 | > 50000 |
| CC(C)C[C@H](NC(=O)OC[C@@H]1CCC(=O)N1Cc1ccc2c(c1)OC(F)(F)O2)C(=O)N[C@@H](C[C@@H]1CCNC1=O)C(O)S(=O)(=O)O (some centres undefined) | 7.30 | 6.49 | 6.35 | > 50000 |
| CC(C)C[C@H](NC(=O)OCC1CC(=O)N(CC2CCCCC2)C1)C(=O)N[C@H](C=O)C[C@@H]1CCNC1=O (some centres undefined) | 7.30 | 6.51 | 6.89 | > 50000 |
| CC(C)C[C@H](NC(=O)OC[C@@H]1CCC(=O)N1Cc1cccc(F)c1)C(=O)N[C@H](C=O)C[C@@H]1CCNC1=O | 6.37 | 6.96 | 7.30 | > 50000 |
| CC(C)C[C@H](NC(=O)OC[C@@H]1CCC(=O)N1CC1CCCCC1)C(=O)N[C@H](C=O)C[C@@H]1CCNC1=O | 7.30 | 6.60 | 6.12 | > 50000 |
| CC(C)C[C@H](NC(=O)OCC1CC(=O)N(CC2CCCCC2)C1)C(=O)N[C@@H](C[C@@H]1CCNC1=O)C(O)S(=O)(=O)O (some centres undefined) | 7.30 | 6.43 | 6.82 | > 50000 |

— ChEMBL document CHEMBL5523732, “Structure-Guided Design of Potent Coronavirus Inhibitors with a 2-Pyrrolidone Scaffold: Biochemical, Crystallographic, and Virological Studies” (J Med Chem, 2024)
